Test results as given in US20060046972A1, “Cytotoxic nucleoside analog compound 003 for treating cancer” (Parker Hughes Institute, priority 2004, published 2006).

Tests used:
[1] = tested on: Microsomal or cytosolic fractions of BT20 cells; experiment: Enzyme kinetics of Compound 003 metabolism in subcellular fractions, BT20; type: in vitro ADME, human
Procedure: 1−3×10^8 Nalm6 and BT20 cells were washed with PBS, resuspended in homogenizing buffer containing 10 mM Tris-HCl (pH 7.4) and 250 mM sucrose. Cells were sonicated and spun at 10,000×g, and the resulting supernatant was centrifuged again at 100,000×g to isolate microsomal and cytosolic fractions. The microsomal pellet was resuspended in a buffer containing 10 mM Tris-HCl (pH 7.4), 250 mM sucrose, 1 mM EDTA, and 20% glycerol. Microsomes or cytosols of Nalm6 (80 μg. and 86 μg, respectively) and BT20 cells (59 μg and 160 μg, respectively) were preincubated with or without 1 mM paraoxon in Tris-HCl buffer (pH 7.4) in a total volume of 250 μl for 10 minutes; 1. mM COMPOUND 003 was then added to the incubation mixture, and the reactions were allowed to proceed for another 30 minutes and terminated by addition of 125 μl of acetone. Protein precipitation was then removed by centrifugation; 100 μl of the supernatant was injected directly into the HPLC.
2.2.9 Enzyme Kinetics of Compound 003 Metabolism Microsomal or cytosolic fractions of Nalm6 and BT20 cells were incubated with COMPOUND 003 at various concentrations from 10 μM to 1.2 mM in similar reaction conditions as described above, except without the inhibitor. The reactions were allowed to proceed for 40 minutes. Km and Vmax in the Michaelis-Menten model were estimated by WinNonlin program (Scientific Consulting, Inc.)

[2] = tested on: MMTV/Neu transgenic mice kept pregnant or lactating; experiment: Lactation induced murine model of Her 2 positive breast cancer, MMTV/Neu transgenic mice; type: in vivo
Procedure: (§1) MMTV/Neu transgenic mice were treated with Compound 003 that was added to the daily food of the mice at an average daily dose level of 50 mg/kg/day for the duration of the experiment. Mice were screened for the tumor formation every other day. Tumor-free survival was analyzed using life table statistics as previously reported. The protective anti-cancer activity of Compound 003 was evaluated according to the rise of the survival rate and prolongation of the tumor-free survival of the experimental animals as compared with the control animals. Statistical Significance was determined using the Kaplan Meier Log-Rank test.
In the second experiment, in order to maintain the development of mammary gland and maximum expression of the MMTV-driven neu transgene, all female transgenic mice were kept either pregnant or lactating by continued housing with male FVB mice. Treatments commenced when female mice were 6-weeks of age. Vehicle-treated control mice (N=16) developed breast cancer faster than vehicle treated virgin transgenic mice with a median cancer-free survival time of 169.5 days (Mean=160.8±9.3 days). Compound 003 prolonged the median cancer-free survival from 169.5 days to 234 days (P=0.05). At 200 days, the cumulative proportion of vehicle-treated neu transgenic mice was only 38±12%, whereas at the same time 75±11% of Compound 003-treated neu transgenic mice were cancer-free (FIG. 9).

[3] = tested on: MMTV/Neu transgenic mice (spontaneous breast cancer); experiment: Murine model of Her2 positive breast cancer, virgin MMTV/Neu transgenic mice; type: in vivo
Description: Overexpression of the wild type Neu in the mammary glands of transgenic mice induces metastatic breast cancer. Accordingly, in the MMTV/Neu transgenic strain, the wild-type neu is overexpressed in the mammary gland under the control of the MMTV long terminal repeat. This animal model has been used to analyze the Her2/neu overexpression in breast epithelia, as well as the efficacy of new therapeutic approaches to prevent or treat Her2/neu overexpressing malignancies.
as §1
Neu transgenic mice were mated to FVB non-transgenic mice, and heterozygous neu transgenic offspring were identified by PCR analysis. A total of 62 female neu transgenic mice were identified from the offspring. These transgenic mice were used to examine the effects of a nontoxic dose level of Compound 003 (50 mg/kg/day) on spontaneous breast cancer development in two independent experiments.
In the first experiment, 30 virgin transgenic mice were used. Treatments were initiated when female mice were 6 weeks of age. Fifteen of the 15 vehicle treated control transgenic mice developed breast cancer with a median cancer-free survival time of 224 days (Mean=253±23 days) (FIG. 7, FIG. 8A&B). At 340 days, only 20% of the mice were tumor-free and by 480 days all had developed breast cancer. The mammary gland tumors were excised, paraffin-embedded and sectioned for H+E staining. A representative tumor section from a neu transgenic mouse is shown in panel C of FIG. 8. […]

BT20 breast cancer cells = experiment: Confocal laser scanning microscopy of microtubules / mitotic spindle, BT20; type: cell-based, human
Procedure: Immunofluorenscence was used to examine the spindle features of human cancer cell lines treated with Compound 003 or 0.5% DMSO. […] The coverslips were incubated with antibodies raised against α-tubulin, γ-tubulin (Sigma Chemical Co., St Louis, Mo.) (40 min 37° C.), washed in PBS-Tx-100, and incubated with an appropriate secondary antibody conjugated to FITC (Jackson ImmunoResearch, Westgrove, Pa.). Cellular DNA was labeled with 5 μM TOTO3 (Molecular Probes, Eugene, Oreg.) for 20 minutes. Coverslips were immediately inverted onto slides in Vectashield (Vector Labs, Burlingame, Calif.) to prevent photobleaching, sealed with nail varnish and stored at −20° C. The slides were examined using a Bio-Rad MRC-1024 Laser Scanning Confocal Microscope equipped with a Kr/Ar laser (BioRad, Hercules, Calif.) mounted on a Nikon Eclipse E800 upright microscope with high numerical aperture objectives (Nikon, Melville, N.Y.). Digital data were processed using Lasersharp (BioRad) and Adobe Photoshop software (Adobe Systems, Mountain View, Calif.). ( See, for example, Navara, et al., 2001, Anticancer Drugs. 12:369; Malaviya, et al., 2002, Leuk Lymphoma. 43, 1329; and Ghosh, 1998, Clin Cancer Res. 4, 2657).

## COC(=O)C(C)NP(=O)(OCC1OC(n2cc(C)c(=O)[nH]c2=O)CC1N=[N+]=[N-])Oc1ccc(OC)cc1 (centres unmarked) [Compound 003, 3′-azidothymidine 5′-[p-methoxyphenylmethoxyalaninyl phosphate]]
[1]; cytosolic fraction
  Km: 1750 µM
  Vmax: 5.9 nmol/mg/min
[1]; microsomal fraction
  Km: 460 µM
  Vmax: 0.7 nmol/mg/min
[2]; 50 mg/kg/day in food, vehicle 169.5 days, P=0.05
  median cancer-free survival: 234 days
[2]; 50 mg/kg/day, at 200 days, vehicle 38±12%
  proportion of mice cancer-free: 75±11%
[3]; 50 mg/kg/day in food, vehicle 224 days, P=0.0007
  median cancer-free survival: 455 days
[3]; 50 mg/kg/day, at 340 days, vehicle 20±10%
  proportion of mice cancer-free: 93±7%
[3]; 50 mg/kg/day, at 480 days, when all vehicle mice had breast cancer
  proportion of mice still cancer-free: one third
BT20 breast cancer cells; 100 μM
  mitotic spindle formation: induced aberrant multipolar spindle formation
BT20 breast cancer cells; 185 μM for 24 hours (AZT: similar concentrations)
  effect on microtubules: no microtubules were observed
